Measured values: patent publication US20240299275A1, “HYDROXY ACIDS FOR SCALP AND HAIR IN SULFATE FREE PERSONAL CARE COMPOSITIONS” (The Procter & Gamble Company, priority 2023, published 2024)
Where “and” joins values, the source holds several entries; their conditions need not be identical. Equal entries are not always repeated.

What was measured:
[1] = Surfactant stability: change in lauric acid concentration of surfactant solutions after 65 C for 1 month vs baseline (HPLC/MS/MS); type: physicochemical; settings: for Delta % lauric acid/Anionic Surfactant Conc.: 65 C 1 month; for Delta % lauric acid/Co Surfactant Conc.: 8.0% co surfactant alone, 65 C 1 month vs as made at about 25 C
Description: Lowering the personal care composition's pH is a key driver of hydroxy acid delivery to the hair and the skin under the hair. However, lowering pH reduces the options of suitable anionic surfactants free-of sulfates as many are susceptible to hydrolysis. Therefore, surfactant stability is analyzed by measuring the change in lauric acid concentration of surfactant solutions after exposure to high temperature (65 C) for 1 month and at range of pH vs. baseline conditions (surfactant solutions as made at ambient temperature of about 25 C). As shown in the table below, the Taurate surfactants are less susceptible to degradation at lower pH and (rows 8-10, 17-21 and 30-33) vs. other common amino acid based anionic surfactants (Sarcosinate, Alaninate, Glutamate, Glycinate, and Isethionate).
Approximately 10 mg of each sample is weighed into a vial and 10 mL of isopropanol (IPA) added and mixed. An aliquot of the diluted sample (0.1 mL) is then transferred into an autosampler vial containing stable-isotope-labeled (D23 lauric acid) internal standard (ISTD) and diluent (85/15 IPA/water, 0.9 mL). A set of lauric acid standards is prepared over an appropriate calibration range in diluent and spiked with ISTD. The standards and samples are analyzed using gradient reversed-phase high performance liquid chromatography with tandem mass spectrometry (HPLC/MS/MS). Lauric acid and the ISTD are monitored by negative ion electrospray (ESI) using “pseudo” selected reaction monitoring (i.e., a precursor-to-precursor transition with no mass loss). A standard curve is constructed by plotting the peak area ratio (peak area lauric acid/peak area ISTD) for each standard versus lauric acid concentration. The amount of lauric acid in the calibration standards and diluted samples is back-calculated using the generated regression equation. The result is reported as the mass of lauric acid per g of sample (% Lauric Acid).

[2] = test system: forearm skin; assay: Surfactant mildness forearm study, GPSkin device, TEWL; type: in vivo; settings: Sodium Methyl Cocoyl Taurate at 2.5% vs Sodium Lauryl Sulfate at 9.0%, pH 3.0 compositions
Description: • Method. A simple forearm study design approach is leveraged to screen prototypes for skin health benefits. GPSkin devices from GPOWER Inc. are used to monitor skin health over the duration of the study. Baseline GPSkin health measures are taken on day 1 followed by product treatment and rinse. This procedure is repeated over three consecutive days and two treatments are evaluated. n=7

[3] = 7.0% Cocamidopropyl Betaine + 3.0% anionic surfactant, pH 4.5
[4] = 7.0% Cocamidopropyl Betaine + 3.0% anionic surfactant, pH 5.2
[5] = 7.0% Cocamidopropyl Betaine + 3.0% anionic surfactant, pH 5.8
[6] = 7.0% Cocamidopropyl Betaine + 3.0% anionic surfactant, pH 6.5

Delta % lauric acid/Anionic Surfactant Conc. [1, 3] [%] | Delta % lauric acid/Anionic Surfactant Conc. [1, 4] | Delta % lauric acid/Anionic Surfactant Conc. [1, 5] [%] | Delta % lauric acid/Anionic Surfactant Conc. [1, 6] [%] | Compound | further results
16.097 | 5.262% | 2.867 | 3.002 | CCCCCCCCCCCC(=O)OC(C)CS(=O)(=O)[O-].[Na+] (centres unmarked) [Sodium Lauroyl Methyl Isethionate] | –
– | – | – | – | Cocamidopropyl Betaine | Delta % lauric acid/Co Surfactant Conc. ([1]; pH 5.2): 0.130%; Delta % lauric acid/Co Surfactant Conc. ([1]; pH 5.8): 0.216%; Delta % lauric acid/Co Surfactant Conc. ([1]; pH 6.5): 0.187% and 0.154%
9.905 | 5.890% | 2.058 | 1.097 | Sodium cocoyl alaninate | Delta % lauric acid/Anionic Surfactant Conc. ([1]; 8.0% anionic surfactant alone, pH 5.2): 5.735%; Delta % lauric acid/Anionic Surfactant Conc. ([1]; 8.0% anionic surfactant alone, pH 5.6): 2.086%; Delta % lauric acid/Anionic Surfactant Conc. ([1]; 8.0% anionic surfactant alone, pH 6.3): 0.729%
12.626 | 7.971% | 1.791 | 0.619 | Sodium cocoyl glycinate | –
– | 7.379% | – | – | Sodium cocoyl isethionate | Delta % lauric acid/Anionic Surfactant Conc. ([1]; 7.0% Cocamidopropyl Betaine + 3.0% anionic surfactant, pH 5.7): 4.277%; Delta % lauric acid/Anionic Surfactant Conc. ([1]; 7.0% Cocamidopropyl Betaine + 3.0% anionic surfactant, pH 6.4): 3.124%
1.076 | 0.135% | −0.276 | 0.024 | Sodium cocoyl taurate | –
– | 1.005% and 1.220% and 1.468% | 0.689 | 0.510 | Sodium methyl cocoyl taurate | Delta % lauric acid/Anionic Surfactant Conc. ([1]; 8.0% anionic surfactant alone, pH 5.1): 0.218%; Delta % lauric acid/Anionic Surfactant Conc. ([1]; 8.0% anionic surfactant alone, pH 5.8): 0.026%; Delta % lauric acid/Anionic Surfactant Conc. ([1]; 8.0% anionic surfactant alone, pH 6.5): 0.223%; mildness on forearm skin [2]: milder on forearm skin than Sodium Lauryl Sulfate at 9.0%
